Assay results published in US20230085307A1, “PYRIDAZINONE COMPOUND AND HERBICIDE” (NISSAN CHEMICAL CORPORATION, priority 2019, published 2023).

What was measured:
late watergrass = assay: Test Example 1: herbicidal activity, application before weed generation under submerged conditions (Table 16, symbol A); type: in vivo, late watergrass (Echinochloa oryzicola); details: amount of applied herbicide 320 g/ha
Outline: (§1)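 Emulsion formulation, water-diluted to set dose, was put onto the flooded surface (4 cm depth, alluvial soil) the same day weeds were sown and 2.5-leaf rice transplanted. After 3 weeks at 25-30 °C under glass, each species was rated 0 (≤5% kill) to 5 (≥90% kill).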

Japanese bulrush = assay: Test Example 1: herbicidal activity, application before weed generation under submerged conditions (Table 16, symbol B); type: in vivo, Japanese bulrush (Schoenoplectus juncoides); details: amount of applied herbicide 320 g/ha
Outline: as §1

oval-leafed pondweed = assay: Test Example 1: herbicidal activity, application before weed generation under submerged conditions (Table 16, symbol C); type: in vivo, oval-leafed pondweed (Monochoria vaginalis); details: amount of applied herbicide 320 g/ha
Outline: as §1

barnyard grass [1] = assay: Test Example 3: herbicidal effect by foliage application, Wagner pot (Table 18, symbol H); type: in vivo, barnyard grass (Echinochloa crus-galli); details: 320 g/ha
Outline: (§2)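 Plants were sown in alluvial soil held under 0.1–0.5 cm standing water and grown 14 days in a greenhouse at 25–30 °C. An emulsifiable formulation, water-diluted to the set dose, was then sprayed onto the foliage, and effects were scored three weeks later using previously defined criteria.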

Chinese sprangletop = assay: Test Example 3: herbicidal effect by foliage application, Wagner pot (Table 18, symbol D); type: in vivo, chinese sprangletop (Leptochloa chinensis); details: 320 g/ha
Outline: as §2

rice flat sedge = assay: Test Example 3: herbicidal effect by foliage application, Wagner pot (Table 18, symbol E); type: in vivo, rice flat sedge (Cyperus iria); details: 320 g/ha
Outline: as §2

southern crabgrass [2] = assay: Test Example 4: herbicidal effect by soil treatment (Table 19, symbol F); type: in vivo, southern crabgrass (Digitaria ciliaris); details: amount of applied herbicide 320 g/ha
Outline: (§3)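 Emulsion of test compound, water-diluted to predetermined amount, sprayed on soil after sowing (seed depth ~1.5 cm, sterilized diluvial soil). Greenhouse, 25–30° C. Effect graded at three weeks post-spray.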

green foxtail [3] = assay: Test Example 4: herbicidal effect by soil treatment (Table 19, symbol G); type: in vivo, green foxtail (Setaria viridis); details: amount of applied herbicide 320 g/ha
Outline: as §3

barnyard grass [4] = assay: Test Example 4: herbicidal effect by soil treatment (Table 19, symbol H); type: in vivo, barnyard grass (Echinochloa crus-galli); details: amount of applied herbicide 320 g/ha
Outline: as §3

wild oat [5] = assay: Test Example 4: herbicidal effect by soil treatment (Table 19, symbol I); type: in vivo, wild oat (Avena fatua); details: amount of applied herbicide 320 g/ha
Outline: as §3

blackgrass [6] = assay: Test Example 4: herbicidal effect by soil treatment (Table 19, symbol J); type: in vivo, blackgrass (Alopecurus myosuroides); details: amount of applied herbicide 320 g/ha
Outline: as §3

Italian ryegrass [7] = assay: Test Example 4: herbicidal effect by soil treatment (Table 19, symbol K); type: in vivo, Italian ryegrass (Lolium multiflorum); details: amount of applied herbicide 320 g/ha
Outline: as §3

windgrass [8] = assay: Test Example 4: herbicidal effect by soil treatment (Table 19, symbol L); type: in vivo, windgrass (Apera spica-venti); details: amount of applied herbicide 320 g/ha
Outline: as §3

velvetleaf [9] = assay: Test Example 4: herbicidal effect by soil treatment (Table 19, symbol M); type: in vivo, velvetleaf (Abutilon theophrasti); details: amount of applied herbicide 320 g/ha
Outline: as §3

redroot pigweed [10] = assay: Test Example 4: herbicidal effect by soil treatment (Table 19, symbol N); type: in vivo, redroot pigweed (Amaranthus retroflexus); details: amount of applied herbicide 320 g/ha
Outline: as §3

lambsquarters [11] = assay: Test Example 4: herbicidal effect by soil treatment (Table 19, symbol O); type: in vivo, lambsquarters (Chenopodium album); details: amount of applied herbicide 320 g/ha
Outline: as §3

chickweed [12] = assay: Test Example 4: herbicidal effect by soil treatment (Table 19, symbol P); type: in vivo, common chickweed (Stellaria media); details: amount of applied herbicide 320 g/ha
Outline: as §3

persian speedwell [13] = assay: Test Example 4: herbicidal effect by soil treatment (Table 19, symbol R); type: in vivo, Persian speedwell (Veronica persica); details: amount of applied herbicide 320 g/ha
Outline: as §3

southern crabgrass [14] = assay: Test Example 5: herbicidal effect by foliage application, plastic box (Table 20, symbol F); type: in vivo, southern crabgrass (Digitaria ciliaris); details: 320 g/ha, foliage application after 14-day growth, evaluated three weeks after application
Outline: (§4)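 Post-emergence foliar test in sterilized diluvial soil. Compound applied as water-diluted emulsion at a predetermined rate to 14-day-old plants; evaluation at three weeks.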

green foxtail [15] = assay: Test Example 5: herbicidal effect by foliage application, plastic box (Table 20, symbol G); type: in vivo, green foxtail (Setaria viridis); details: 320 g/ha, foliage application after 14-day growth, evaluated three weeks after application
Outline: as §4

barnyard grass [16] = assay: Test Example 5: herbicidal effect by foliage application, plastic box (Table 20, symbol H); type: in vivo, barnyard grass (Echinochloa crus-galli); details: 320 g/ha, foliage application after 14-day growth, evaluated three weeks after application
Outline: as §4

wild oat [17] = assay: Test Example 5: herbicidal effect by foliage application, plastic box (Table 20, symbol I); type: in vivo, wild oat (Avena fatua); details: 320 g/ha, foliage application after 14-day growth, evaluated three weeks after application
Outline: as §4

blackgrass [18] = assay: Test Example 5: herbicidal effect by foliage application, plastic box (Table 20, symbol J); type: in vivo, blackgrass (Alopecurus myosuroides); details: 320 g/ha, foliage application after 14-day growth, evaluated three weeks after application
Outline: as §4

Italian ryegrass [19] = assay: Test Example 5: herbicidal effect by foliage application, plastic box (Table 20, symbol K); type: in vivo, Italian ryegrass (Lolium multiflorum); details: 320 g/ha, foliage application after 14-day growth, evaluated three weeks after application
Outline: as §4

windgrass [20] = assay: Test Example 5: herbicidal effect by foliage application, plastic box (Table 20, symbol L); type: in vivo, windgrass (Apera spica-venti); details: 320 g/ha, foliage application after 14-day growth, evaluated three weeks after application
Outline: as §4

velvetleaf [21] = assay: Test Example 5: herbicidal effect by foliage application, plastic box (Table 20, symbol M); type: in vivo, velvetleaf (Abutilon theophrasti); details: 320 g/ha, foliage application after 14-day growth, evaluated three weeks after application
Outline: as §4

redroot pigweed [22] = assay: Test Example 5: herbicidal effect by foliage application, plastic box (Table 20, symbol N); type: in vivo, redroot pigweed (Amaranthus retroflexus); details: 320 g/ha, foliage application after 14-day growth, evaluated three weeks after application
Outline: as §4

lambsquarters [23] = assay: Test Example 5: herbicidal effect by foliage application, plastic box (Table 20, symbol O); type: in vivo, lambsquarters (Chenopodium album); details: 320 g/ha, foliage application after 14-day growth, evaluated three weeks after application
Outline: as §4

chickweed [24] = assay: Test Example 5: herbicidal effect by foliage application, plastic box (Table 20, symbol P); type: in vivo, common chickweed (Stellaria media); details: 320 g/ha, foliage application after 14-day growth, evaluated three weeks after application
Outline: as §4

persian speedwell [25] = assay: Test Example 5: herbicidal effect by foliage application, plastic box (Table 20, symbol R); type: in vivo, Persian speedwell (Veronica persica); details: 320 g/ha, foliage application after 14-day growth, evaluated three weeks after application
Outline: as §4

## COc1ccccc1-c1sc2c(F)cccc2c1-c1c(O)c(C)nn(C)c1=O [4-003]
Late watergrass
  Herbicidal effect, A: late watergrass: 3 (Herbicidal rate of 40% or more and less than 70%)
Japanese bulrush
  Herbicidal effect, B: Japanese bulrush: 0 (Herbicidal rate of 5% or less (almost no effect))
oval-leafed pondweed
  Herbicidal effect, C: oval-leafed pondweed: 0 (Herbicidal rate of 5% or less (almost no effect))
Barnyard grass [1]
  herbicidal effect on barnyard grass (H): 3 (Herbicidal rate of 40% or more and less than 70%)
Chinese sprangletop
  herbicidal effect on Chinese sprangletop (D): 3 (Herbicidal rate of 40% or more and less than 70%)
Rice flat sedge
  herbicidal effect on rice flat sedge (E): 3 (Herbicidal rate of 40% or more and less than 70%)
Southern crabgrass [2]
  Herbicidal effect by soil treatment, F: southern crabgrass: 0 (Herbicidal rate of 5% or less (almost no effect))
Green foxtail [3]
  Herbicidal effect by soil treatment, G: green foxtail: 0 (Herbicidal rate of 5% or less (almost no effect))
Barnyard grass [4]
  Herbicidal effect by soil treatment, H: barnyard grass: 0 (Herbicidal rate of 5% or less (almost no effect))
Wild oat [5]
  Herbicidal effect by soil treatment, I: wild oat: 0 (Herbicidal rate of 5% or less (almost no effect))
Blackgrass [6]
  Herbicidal effect by soil treatment, J: blackgrass: 0 (Herbicidal rate of 5% or less (almost no effect))
Italian ryegrass [7]
  Herbicidal effect by soil treatment, K: Italian ryegrass: 0 (Herbicidal rate of 5% or less (almost no effect))
Windgrass [8]
  Herbicidal effect by soil treatment, L: windgrass: 0 (Herbicidal rate of 5% or less (almost no effect))
Velvetleaf [9]
  Herbicidal effect by soil treatment, M: velvetleaf: 0 (Herbicidal rate of 5% or less (almost no effect))
Redroot pigweed [10]
  Herbicidal effect by soil treatment, N: redroot pigweed: 4 (Herbicidal rate of 70% or more and less than 90%)
Lambsquarters [11]
  Herbicidal effect by soil treatment, O: lambsquarters: 3 (Herbicidal rate of 40% or more and less than 70%)
Chickweed [12]
  Herbicidal effect by soil treatment, P: chickweed: 1 (Herbicidal rate of 5% or more and less than 20%)
Persian speedwell [13]
  Herbicidal effect by soil treatment, R: persian speedwell: 1 (Herbicidal rate of 5% or more and less than 20%)
Southern crabgrass [14]
  herbicidal effect on F: southern crabgrass (evaluation grade 0-5): 1 (Herbicidal rate of 5% or more and less than 20%)
Green foxtail [15]
  herbicidal effect on G: green foxtail (evaluation grade 0-5): 4 (Herbicidal rate of 70% or more and less than 90%)
Barnyard grass [16]
  herbicidal effect on H: barnyard grass (evaluation grade 0-5): 1 (Herbicidal rate of 5% or more and less than 20%)
Wild oat [17]
  herbicidal effect on I: wild oat (evaluation grade 0-5): 0 (Herbicidal rate of 5% or less (almost no effect))
Blackgrass [18]
  herbicidal effect on J: blackgrass (evaluation grade 0-5): 4 (Herbicidal rate of 70% or more and less than 90%)
Italian ryegrass [19]
  herbicidal effect on K: Italian ryegrass (evaluation grade 0-5): 4 (Herbicidal rate of 70% or more and less than 90%)
Windgrass [20]
  herbicidal effect on L: windgrass (evaluation grade 0-5): 3 (Herbicidal rate of 40% or more and less than 70%)
Velvetleaf [21]
  herbicidal effect on M: velvetleaf (evaluation grade 0-5): 3 (Herbicidal rate of 40% or more and less than 70%)
Redroot pigweed [22]
  herbicidal effect on N: redroot pigweed (evaluation grade 0-5): 3 (Herbicidal rate of 40% or more and less than 70%)
Lambsquarters [23]
  herbicidal effect on O: lambsquarters (evaluation grade 0-5): 3 (Herbicidal rate of 40% or more and less than 70%)
Chickweed [24]
  herbicidal effect on P: chickweed (evaluation grade 0-5): 5 (Herbicidal rate of 90% or more (almost completely withered))
Persian speedwell [25]
  herbicidal effect on R: persian speedwell (evaluation grade 0-5): 5 (Herbicidal rate of 90% or more (almost completely withered))
